From US4782076A, “Substituted 2,3,4,9-tetrahydro-1H-carbazole-1-acetic acid derivatives, composition and use” (American Home Products Corporation, priority 1988, dated 1988)

Legend:
[1] = system: Freund's complete adjuvant-induced hind paw edema in rats; test: Preventive adjuvant edema in rats (Preventative Adjuvant Edema); format: in vivo, Male Sprague Dawley rats; details: 25 mg/kg, p.o., day 0, 1 and 2; edema measured day 3
Experimental: This test is a primary screen for anti-inflammatory drugs.
Male Sprague Dawley rats (180-200 g) are used. The animals have free access to water but food is withdrawn 18 hours before testing.
Drug Preparations and Administration:
Freund's complete adjuvant is prepared by suspending 5 mg killed and dried Mycobacterium butyricum (Difco) in 1 mL liquid paraffin. The test compounds are dissolved in distilled water or suspended in 0.5% Tween 80 in distilled water according to their solubility. For primary screening all drugs are administered by gastric lavage at the arbitrary dosage of 25 mg/kg, p.o. in a volume of 0.5 mL/100 g body weight to groups of 10 animals.
The method is essentially that described by Wax et al, J. Pharmacol. Exp. Ther., 192, 166-171 (1975). Groups of rats are injected intradermally in the left hind paw with 0.1 mL of Freund's complete adjuvant. […] The injected hind paw volume is measured before the injection of adjuvant and 24 hours after the last drug administration (day 3) by means of a plethysmometer (Buxco Electronics Inc.). […]
The mean edema volume (expressed in mL±SEM) is calculated for each group and the percentage inhibition of inflammation conferred by the drug is calculated: [formula] where c is the mean edema volume for the untreated controls and t is the means edema volume for the drug treated group.

[2] = system: phenylbenzoquinone-induced writhing in mice; test: Phenylbenzoquinone-induced writhing in mice (Phenylquinone Writhing in Mice); format: in vivo, Male Swiss albino mice; details: 60 min before PBQ i.p.
Experimental: A further test used to determine the utility of the compounds of the present invention is designated: DRUG EFFECTS ON PHENYLBENZOQUINONE-INDUCED WRITHING IN MICE
The objective of this test is to determine the ability of test drugs to inhibit the nociceptive (pain) response of mice injected with a chemical irritant. This test is a primary screen for both peripheral and centrally acting analgesic drugs.
Male Swiss albino mice (15-25 g) are used. The animals are fasted for 18 hours prior to use but have free access to water.
(§1) Drug Preparation and Administration:
Drugs are dissolved or suspended according to their solubility in 0.5% Tween 80 in distilled water. They are administered by gastric lavage in a volume of 5 mL/kg. […]
A modification of the method of Siegmund et al, Proc. Soc. […] The number of writhing or abdominal squirming movements made by each mouse during the following 15 minute period is counted. The experiment is repeated with another group of 5 mice and the mean number of writhes per mouse for a group of 10 mice is calculated.
Drug treated and vehicle-treated control groups are compared and the percentage inhibition of writhing conferred by the drug is calculated: [formula] where c=mean number of writhes in the control group, and where t=mean number of writhes in the test drug group.

[3] = system: reaction of rats to painful stimulation applied to an inflamed paw; test: Paw pressure test in the rat; format: in vivo, Male Sprague Dawley rats; details: po, 24 hours after Freund's adjuvant, pain threshold 1 hour later, dose which causes analgesia in 50% of the animals
Excerpt: A still further test used to determine the utility of the compounds of the present invention is designated: PAW PRESSURE TEST IN THE RAT
The objective of this test is to assess the potency of peripheral and central acting drugs in inhibiting the reaction of rats to painful stimulation applied to an inflamed paw.
Male Sprague Dawley rats (180-200 g) are used. The animals are fasted overnight prior to drug administration.
as §1
Freund's Complete Adjuvant (FCA) is prepared by suspending 5 mg killed and dried Mycobacterium butyricum (Difco) in 1 mL liquid paraffin. The test compounds are dissolved or susended in 0.5% Tween 80 in distilled water according to their solubility. They are administered by gastric gavage in a volume of 0.5 mL/100 g body weight to groups of 10 animals.
Ten rats are used per group. The method is essentially that described by Randall et al, Arch. Int. Pharmacodyn. […] The force is continuously monitored by a pointer moving along a linear scale and is measured in grams. […] The pain threshold is determined 1 hour later in the inflamed paw and the normal paw of the treated and control groups. […]
Each animal which has a reading 1.5 times greater than the mean reading of the control-group will be considered as responsive to treatment. The number of animals showing an analgesic effect is then determined in each group. […]

SMILES | % Inhibition [1] [%] | ED50 ([2]; Mus musculus, po) [mg/kg] | ED50 [3] [mg/kg] | % Inhibition ([2]; 25 mg/kg, p.o.) [%]
C#CCC1CCC(CC)(CC(=O)O)c2[nH]c3c(CC)cccc3c21 (single isomer, unassigned; isomer a) [Example 1, 1,8-Diethyl-2,3,4,9-tetrahydro-4-(2-propynyl)-1H-carbazole-1-acetic Acid Isomer A] | 51 | 6.6 | 0.38 | 
C#CCC1CCC(CC)(CC(=O)O)c2[nH]c3c(CC)cccc3c21 (single isomer, unassigned; isomer b) [Example 2, 1,8-Diethyl-2,3,4,9-tetrahydro-4-(2-propynyl)-1H-carbazole-1-acetic Acid Isomer B] | 36 |  |  | 8
